This is an account of results in EP2766361B1, “8-CARBAMOYL-2-(2,3-DISUBSTITUTED PYRID-6-YL)-1,2,3,4-TETRAHYDROISOQUINOLINE DERIVATIVES AS APOPTOSIS-INDUCING AGENTS FOR THE TREATMENT OF CANCER AND IMMUNE AND AUTOIMMUNE DISEASES” (priority 2011, dated 2013).

The subject of one assay is Molt-4 human acute lymphoblastic leukemia cells. Description: Molt-4 cellular assay (cell viability, MTS). The assay is classed as cell-based. As to conditions: 10% human serum, 48 hours. On the procedure: Molt-4 (ATCC, Manassas, VA) human acute lymphoblastic leukemia cells were plated 50,000 cells per well in 96-well tissue culture plates in a total volume of 100 µL tissue culture medium supplemented with 10% human serum (Invitrogen, Carlsbad, CA) and treated with a 3-fold serial dilution of the compounds of interest from 5 µM to […]. Each concentration was tested in duplicate at least 3 separate times. The number of viable cells following 48 hours of compound treatment was determined using the CellTiter 96® Aqueous non-radioactive cell proliferation MTS assay according to manufacturer's recommendations (Promega Corp., Madison, WI).
As to `O=C(Nc1nc2ccccc2s1)c1cccc2c1CN(c1ccc(-c3cnn(CC45CC6CC(CC(C6)C4)C5)c3)c(C(=O)O)n1)CC2` [Example 1, 6-[8-(1,3-benzothiazol-2-ylcarbamoyl)-3,4-dihydroisoquinolin-2(1H)-yl]-3-{1-[tricyclo[3.3.1.1^3,7]dec-1-ylmethyl]-1H-pyrazol-4-yl}pyridine-2-carboxylic acid], the EC50 worked out at 201 nM.

Another assay deals with mouse FL5.12 cells transfected with Bcl-xL. As to the kind of experiment: FL5.12 cellular assay (cell viability, CellTiter-Glo). The assay is classed as cell-based. The settings on record: IL-3-depleted, 3% FBS assay media, 24 hours, read-out: FL5.12 Bcl-xL, -IL3, EC50. On the procedure:
Cell viability was assayed using the CellTiter-Glo assay (Promega Corp., Madison, WI) according to the manufacturer instructions. Individual determinations were the result of duplicate values. […] Table 2. In Vitro Data
Regarding `O=C(Nc1nc2ccccc2s1)c1cccc2c1CN(c1ccc(-c3cnn(CC45CC6CC(CC(C6)C4)C5)c3)c(C(=O)O)n1)CC2` [Example 1, 6-[8-(1,3-benzothiazol-2-ylcarbamoyl)-3,4-dihydroisoquinolin-2(1H)-yl]-3-{1-[tricyclo[3.3.1.1^3,7]dec-1-ylmethyl]-1H-pyrazol-4-yl}pyridine-2-carboxylic acid], the EC50 amounted to 39 nM.

On to `Cc1c(-c2ccc(N3CCc4cccc(C(=O)Nc5nc6ccccc6s5)c4C3)nc2C(=O)O)ccnc1N(C)C1CCCCCCC1` [Example 61, 6-[8-(1,3-benzothiazol-2-ylcarbamoyl)-3,4-dihydroisoquinolin-2(1H)-yl]-2'-[cyclooctyl(methyl)amino]-3'-methyl-3,4'-bipyridine-2-carboxylic acid], for which the EC50 stood at 10 nM.

On to `Cc1c(-c2ccc(N3CCc4cccc(C(=O)Nc5nc6ccccc6s5)c4C3)nc2C(=O)O)cnn1CC1C2CC3CC(C2)CC1C3` (stereo not shown) [Example 62, 6-[8-(1,3-benzothiazol-2-ylcarbamoyl)-3,4-dihydroisoquinolin-2(1H)-yl]-3-[5-methyl-1-(tricyclo[3.3.1.1^3,7]dec-2-ylmethyl)-1H-pyrazol-4-yl]pyridine-2-carboxylic acid], for which the concentration giving a half-maximal response (EC50) is 0.8 nM.

For `COCCOCCOC12CC3CC(CC(Cn4ncc(-c5ccc(N6CCc7cccc(C(=O)Nc8nc9ccccc9s8)c7C6)nc5C(=O)O)c4C)(C3)C1)C2` [Example 63, 6-[8-(1,3-benzothiazol-2-ylcarbamoyl)-3,4-dihydroisoquinolin-2(1H)-yl]-3-[1-({3-[2-(2-methoxyethoxy)ethoxy]tricyclo[3.3.1.1^3,7]dec-1-yl}methyl)-5-methyl-1H-pyrazol-4-yl]pyridine-2-carboxylic acid], the EC50 is 3 nM.

In the case of `Cc1c(C(=O)N(C)C2C3CC4CC(C3)CC2C4)cccc1-c1ccc(N2CCc3cccc(C(=O)Nc4nc5ccccc5s4)c3C2)nc1C(=O)O` (stereo not shown) [Example 64], the concentration giving a half-maximal response (EC50) worked out at 26 nM.

For the compound `Cc1c(-c2ccc(N3CCc4cccc(C(=O)Nc5nc6ccccc6s5)c4C3)nc2C(=O)O)cnn1CC1(OCCS(C)(=O)=O)CCCCCCC1` [Example 65, 6-[8-(1,3-benzothiazol-2-ylcarbamoyl)-3,4-dihydroisoquinolin-2(1H)-yl]-3-[5-methyl-1-({1-[2-(methylsulfonyl)ethoxy]cyclooctyl}methyl)-1H-pyrazol-4-yl]pyridine-2-carboxylic acid], the EC50 amounted to 1 nM.

As to `Cc1c(-c2ccc(N3CCc4cccc(C(=O)Nc5nc6ccccc6s5)c4C3)nc2C(=O)O)nnn1CC12CC3CC(CC(C3)O1)C2` [Example 66, 6-[8-(1,3-benzothiazol-2-ylcarbamoyl)-3,4-dihydroisoquinolin-2(1H)-yl]-3-[5-methyl-1-(2-oxatricyclo[3.3.1.1^3,7]dec-1-ylmethyl)-1H-1,2,3-triazol-4-yl]pyridine-2-carboxylic acid], the half-maximal effective concentration (EC50) came out at 26 nM.

As to `Cc1c(-c2ccc(N3CCc4cccc(C(=O)Nc5nc6cccnc6s5)c4C3)nc2C(=O)O)cnn1CC12CC3CC(CC(C3)O1)C2` [Example 67, 3-[5-methyl-1-(2-oxatricyclo[3.3.1.1^3,7]dec-1-ylmethyl)-1H-pyrazol-4-yl]-6-[8-([1,3]thiazolo[5,4-b]pyridin-2-ylcarbamoyl)-3,4-dihydroisoquinolin-2(1H)-yl]pyridine-2-carboxylic acid], the half-maximal effective concentration (EC50) turned out to be 9 nM.

Take `Cc1c(-c2ccc(N3CCc4cccc(C(=O)Nc5nc6ccccc6s5)c4C3)nc2C(=O)O)cccc1N(C)C(=O)C12CC3CC(CC(C3)O1)C2` [Example 68, 6-[8-(1,3-benzothiazol-2-ylcarbamoyl)-3,4-dihydroisoquinolin-2(1H)-yl]-3-{2-methyl-3-[methyl(2-oxatricyclo[3.3.1.1^3,7]dec-1-ylcarbonyl)amino]phenyl}pyridine-2-carboxylic acid]: the concentration giving a half-maximal response (EC50) was 22 nM.

For `Cc1c(-c2ccc(N3CCc4cccc(C(=O)Nc5nc6ccccc6s5)c4C3)nc2C(=O)O)cccc1S(=O)(=O)N(C)C1C2CC3CC(C2)CC1C3` (stereo not shown) [Example 69, 6-[8-(1,3-benzothiazol-2-ylcarbamoyl)-3,4-dihydroisoquinolin-2(1H)-yl]-3-(2-methyl-3-{methyl[tricyclo[3.3.1.1^3,7]dec-2-yl]sulfamoyl}phenyl)pyridine-2-carboxylic acid], the EC50 stood at 449 nM.

As to `Cc1c(-c2ccc(N3CCc4cccc(C(=O)Nc5nc6ccccc6s5)c4C3)nc2C(=O)O)ccnc1S(=O)(=O)C12CC3CC(CC(C3)C1)C2` [Example 70, 6-[8-(1,3-benzothiazol-2-ylcarbamoyl)-3,4-dihydroisoquinolin-2(1H)-yl]-3'-methyl-2'-(tricyclo[3.3.1.1^3,7]dec-1-ylsulfonyl)-3,4'-bipyridine-2-carboxylic acid], the concentration giving a half-maximal response (EC50) was determined as 72 nM.

With `Cc1c(-c2ccc(N3CCc4cccc(C(=O)Nc5nc6ccccc6s5)c4C3)nc2C(=O)O)cc(C#N)n1CC12CC3CC(CC(C3)O1)C2` [Example 71, 6-[8-(1,3-benzothiazol-2-ylcarbamoyl)-3,4-dihydroisoquinolin-2(1H)-yl]-3-[5-cyano-2-methyl-1-(2-oxatricyclo[3.3.1.1^3,7]dec-1-ylmethyl)-1H-pyrrol-3-yl]pyridine-2-carboxylic acid], the EC50 worked out at 1 nM.

`Cc1c(-c2ccc(N3CCc4cccc(C(=O)Nc5nc6ccccc6s5)c4C3)nc2C(=O)O)ccnc1SC12CC3CC(CC(C3)C1)C2` [Example 74, 6-[8-(1,3-benzothiazol-2-ylcarbamoyl)-3,4-dihydroisoquinolin-2(1H)-yl]-3'-methyl-2'-(tricyclo[3.3.1.1^3,7]dec-1-ylsulfanyl)-3,4'-bipyridine-2-carboxylic acid]: the concentration giving a half-maximal response (EC50) was 7 nM.

Take `Cc1c(-c2ccc(N3CCc4cccc(C(=O)Nc5nc6cccnc6s5)c4C3)nc2C(=O)NS(C)(=O)=O)cnn1CC12CC3CC(CC(C3)C1)C2` [Example 75, 2-{6-[(methylsulfonyl)carbamoyl]-5-[5-methyl-1-(tricyclo[3.3.1.1^3,7]dec-1-ylmethyl)-1H-pyrazol-4-yl]pyridin-2-yl}-N-([1,3]thiazolo[5,4-b]pyridin-2-yl)-1,2,3,4-tetrahydroisoquinoline-8-carboxamide]: the concentration giving a half-maximal response (EC50) was 3 nM.

As for `Cc1c(-c2ccc(N3CCc4cccc(C(=O)Nc5nc6ccccc6s5)c4C3)nc2C(=O)O)ccnc1NC12CC3CC(CC(C3)C1)C2` [Example 76, 6-[8-(1,3-benzothiazol-2-ylcarbamoyl)-3,4-dihydroisoquinolin-2(1H)-yl]-3'-methyl-2'-(tricyclo[3.3.1.1^3,7]dec-1-ylamino)-3,4'-bipyridine-2-carboxylic acid], the EC50 worked out at 71 nM.

With `Cc1c(-c2ccc(N3CCc4cccc(C(=O)Nc5cn6ncccc6n5)c4C3)nc2C(=O)O)cnn1CC12CC3CC(CC(C3)C1)C2` [Example 77, 6-[8-(imidazo[1,2-b]pyridazin-2-ylcarbamoyl)-3,4-dihydroisoquinolin-2(1H)-yl]-3-[5-methyl-1-(tricyclo[3.3.1.1^3,7]dec-1-ylmethyl)-1H-pyrazol-4-yl]pyridine-2-carboxylic acid], the half-maximal effective concentration (EC50) was 4 nM.

Turning to `Cc1c(-c2ccc(N3CCc4cccc(C(=O)Nc5nc6ccncc6s5)c4C3)nc2C(=O)O)cnn1CC12CC3CC(CC(C3)C1)C2` [Example 78, 3-[5-methyl-1-(tricyclo[3.3.1.1^3,7]dec-1-ylmethyl)-1H-pyrazol-4-yl]-6-[8-([1,3]thiazolo[5,4-c]pyridin-2-ylcarbamoyl)-3,4-dihydroisoquinolin-2(1H)-yl]pyridine-2-carboxylic acid], the half-maximal effective concentration (EC50) was determined as 3 nM.

As to `COC1(Cn2ncc(-c3ccc(N4CCc5cccc(C(=O)Nc6nc7ccccc7s6)c5C4)nc3C(=O)O)c2C)CCCC2(CC2)C1` (stereo not shown) [Example 79, 6-[8-(1,3-benzothiazol-2-ylcarbamoyl)-3,4-dihydroisoquinolin-2(1H)-yl]-3-{1-[(5-methoxyspiro[2.5]oct-5-yl)methyl]-5-methyl-1H-pyrazol-4-yl}pyridine-2-carboxylic acid], the half-maximal effective concentration (EC50) was 0.9 nM.

For `COCCOCCOCCOC12CC3CC(CC(Cn4ncc(-c5ccc(N6CCc7cccc(C(=O)Nc8nc9ccccc9s8)c7C6)nc5C(=O)O)c4C)(C3)C1)C2` [Example 80, 6-[8-(1,3-benzothiazol-2-ylcarbamoyl)-3,4-dihydroisoquinolin-2(1H)-yl]-3-(1-{[3-{2-[2-(2-methoxyethoxy)ethoxy]ethoxy}tricyclo[3.3.1.1^3,7]dec-1-yl]methyl}-5-methyl-1H-pyrazol-4-yl)pyridine-2-carboxylic acid], the EC50 turned out to be 1 nM.

As to `O=C(Nc1nc2ccccc2s1)c1cccc2c1CN(c1ccc(-c3cnn(CC4CC5CCC(C4)N5C(=O)OCc4ccccc4)c3)c(C(=O)O)n1)CC2` (stereo not shown) [Example 84, 6-[8-(1,3-benzothiazol-2-ylcarbamoyl)-3,4-dihydroisoquinolin-2(1H)-yl]-3-[1-({8-[(benzyloxy)carbonyl]-8-azabicyclo[3.2.1]oct-3-yl}methyl)-1H-pyrazol-4-yl]pyridine-2-carboxylic acid], the EC50 was greater than 1000 nM.

Consider `O=C(Nc1nc2ccccc2s1)c1cccc2c1CN(c1ccc(-c3ccc(=O)n(CC45CC6CC(CC(C6)C4)C5)c3)c(C(=O)O)n1)CC2` [Example 85, 6-[8-(1,3-benzothiazol-2-ylcarbamoyl)-3,4-dihydroisoquinolin-2(1H)-yl]-6'-oxo-1'-(tricyclo[3.3.1.1^3,7]dec-1-ylmethyl)-1',6'-dihydro-3,3'-bipyridine-2-carboxylic acid], for which the half-maximal effective concentration (EC50) is 111 nM.
